The values that follow come from patent US4994477A, “Heterocyclic renin inhibitors” (Abbott Laboratories, priority 1988, dated 1991).

For the experiment, the target named is T1, human renal renin (Homo sapiens, UniProt P00797).
T1 construct: human renal renin, free from acid proteolytic activity; from tissue; host or cells: human kidney (from the word 'renal')
T1 sequence (P00797 67-406): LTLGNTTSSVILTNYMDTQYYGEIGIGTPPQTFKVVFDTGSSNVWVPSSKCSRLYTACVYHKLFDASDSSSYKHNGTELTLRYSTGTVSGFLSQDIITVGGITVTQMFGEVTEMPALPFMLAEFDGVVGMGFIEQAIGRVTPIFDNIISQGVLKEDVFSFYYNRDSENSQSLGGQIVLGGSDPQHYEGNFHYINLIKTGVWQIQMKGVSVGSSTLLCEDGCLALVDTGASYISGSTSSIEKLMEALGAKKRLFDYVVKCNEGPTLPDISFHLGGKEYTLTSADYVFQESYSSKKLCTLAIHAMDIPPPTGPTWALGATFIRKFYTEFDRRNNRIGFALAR
The experiment in a line: inhibition of human renal renin in vitro, angiotensin I formed measured by radioimmunoassay. The class given is biochemical. The following applies: human angiotensinogen substrate, 37 degrees C, pH 6.0. As to the method:
At the end of the incubation, the amount of angiotensin I formed is measured by radioimmunoassay and the molar concentration required to cause 50% inhibition, expressed as the IC50, is calculated.
On to `CC(C)C[C@H](O)[C@H](O)[C@H](CC1CCCCC1)NC(=O)[C@H](Cc1c[nH]cn1)NC(=O)c1cc2ccccc2[nH]1` [Example 35, N-(Indolyl-2-carbonyl)-His Amide of 2(S)-Amino-1-cyclohexyl-3(R),4'(S)-dihydroxy-6-methylheptane], for which the IC50 came out at 3.3 nM.

In turn, `CC(C)C[C@H](O)[C@H](O)[C@H](CC1CCCCC1)NC(=O)[C@H](CCC(=O)OCc1ccccc1)NC(=O)c1cc2ccccc2[nH]1` [Example 37, N-(Indolyl-2-carbonyl)-γ-benzyl-Glu Amide of 2(S)-Amino-1-cyclohexyl-3(R),4(S)-dihydroxy-6-methylheptane] came in with a half-maximal inhibitory concentration (IC50) of 130 nM.

Take `CC(C)C[C@H](O)[C@H](O)[C@H](CC1CCCCC1)NC(=O)[C@H](CCC(=O)O)NC(=O)c1cc2ccccc2[nH]1` [Example 38, N-(Indolyl-2-carbonyl)-Glu Amide of 2(S)-Amino-1-cyclohexyl-3(R),4(S)-dihydroxy-6-methylheptane]: the IC50 was found to be 130 nM.

In turn, `CCCC[C@H](NC(=O)c1cc2ccccc2[nH]1)C(=O)N[C@@H](CC1CCCCC1)[C@@H](O)[C@@H](O)CC(C)C` [Example 40, N-(Indolyl-2-carbonyl)-Nle Amide of 2(S)-Amino-1-cyclohexyl-3(R),4(S)-dihydroxy-6-methylheptane] displayed an IC50 of 15 nM.

`CC(C)C[C@H](O)[C@H](O)[C@H](CC1CCCCC1)NC(=O)[C@H](Cc1c[nH]cn1)NC(=O)c1cc2ccccc2n1C` [Example 41, N-(1-Methylindolyl-2-carbonyl)-His Amide of 2(S)-Amino-1-cyclohexyl-3(R),4(S)-dihydroxy6-methylheptane]: half-maximal inhibition (IC50) required 160 nM.

Compound `CC1=C(C(=O)N[C@@H](Cc2c[nH]cn2)C(=O)N[C@@H](CC2CCCCC2)[C@@H](O)[C@@H](O)CC(C)C)Cc2ccccc21` [Example 42, N-(3-Methylindenyl-2-carbonyl)-His Amide of 2(S)-Amino-1-cyclohexyl-3(R),4(S)-dihydroxy-6-methylheptane] gave an IC50 of 200 nM.

Consider `CC(C)C[C@H](O)[C@H](O)[C@H](CC1CCCCC1)NC(=O)[C@H](Cc1c[nH]cn1)NC(=O)c1cc2ccccc2o1` [Example 43, N-(Benzofuranyl-2-carbonyl)-His Amide of 2(S)-Amino-1-cyclohexyl-3(R),4(S)-dihydroxy-6-methylheptane], for which the half-inhibitory concentration (IC50) is 10 nM.

In turn, `CC(C)C[C@H](O)[C@H](O)[C@H](CC1CCCCC1)NC(=O)[C@H](Cc1c[nH]cn1)NC(=O)c1nc2ccccc2s1` [Example 45, N-(Benzothiazolyl-2-carbonyl)-His Amide of 2(S)-Amino-1-cyclohexyl-3(R),4(S)-dihydroxy-6-methylheptane] displayed a 50% inhibitory concentration (IC50) of 31 nM.

As to `CC(C)C[C@H](O)[C@H](O)[C@H](CC1CCCCC1)NC(=O)[C@H](Cc1c[nH]cn1)NC(=O)c1nc2ccccc2n1Cc1ccccc1` [Example 48], the half-maximal inhibitory concentration (IC50) was 170 nM.

Compound `CCN1C[C@@H]([C@H](O)[C@H](CC2CCCCC2)NC(=O)[C@H](Cc2c[nH]cn2)NC(=O)c2cc3ccccc3[nH]2)OC1=O` [Example 51, N-(Indolyl-2-carbonyl)-His-Amide of (2'S,1'R,5S)-3-Ethyl-5-(1'-hydroxy-2'-amino-3'-cyclohexylpropyl)oxazolidin-2one] yielded a concentration for half-maximal inhibition (IC50) of 12 nM.

As for `CC(C)C[C@H](O)[C@H](O)[C@H](CC1CCCCC1)NC(=O)[C@H](Cc1c[nH]cn1)N1Cc2c([nH]c3ccccc23)C1=O` [Example 58, (1'S,2"S,3"R,4"S)-2-[1-[N-(1-Cyclohexyl-3,4-dihydroxy-6-methyl-2-heptyl)carbamoyl]-2-(4-imidazolyl)ethyl]-1,2,3,4-tetrahydropyrrolo[3,4-b]indol-3-one], the half-maximal inhibitory concentration (IC50) is 8.2 nM.

For `CCN1C[C@@H]([C@H](O)[C@H](CC2CCCCC2)NC(=O)[C@H](Cc2c[nH]cn2)N2Cc3c([nH]c4ccccc34)C2=O)OC1=O` [Example 59, (1'S,2"S,3"R,5'"S)-2-[1-[N-[1-Cyclohexyl-3-hydroxy-3-(3-ethyloxazolidin-2-on-5-yl)-2-propyl]carbamoyl]-2-(4-imidazolyl)ethyl]-1,2,3,4-tetrahydropyrrolo[3,4-b]indol-3-one], the half-inhibitory concentration (IC50) was determined as 19 nM.

Take `CC(C)C[C@H](O)[C@H](O)[C@H](CC1CCCCC1)NC(=O)[C@H](CC(C)C)N1Cc2c([nH]c3ccccc23)C1=O` [Example 70, (1'S,2"S,3"R,4"S)-2-[1-[N-(1-cyclohexyl-3,4-dihydroxy-6-methyl-2-heptyl)carbamoyl]-3-methylbutyl]-1,2,3,4-tetrahydropyrrolo[3,4-b]indol-3-one]: the IC50 was 100 nM.

Compound `CC(C)C[C@H](O)[C@H](O)[C@H](CC1CCCCC1)NC(=O)CN1Cc2c([nH]c3ccccc23)C1=O` [Example 75, (2'S,3'R,4'S)-2-[N-(1-cyclohexyl-3,4-dihydroxy-6-methyl-2-heptyl)carbamoyl]methyl-1,2,3,4-tetrahydropyrrolo[3,4-b]indol-3-one] showed an IC50 of 200 nM.

Consider `CC(C)C[C@H](O)[C@H](O)[C@H](CC1CCCCC1)NC(=O)[C@H](Cc1cscn1)N1Cc2c([nH]c3ccccc23)C1=O` [Example 81, (1'S,2"S,3"R,4"S)-2-[1-[N-(1-cyclohexyl-3,4-dihydroxy-6-methyl-2-heptyl)carbamoyl]-2-(4-thiazolyl)ethyl]-1,2,3,4-tetrahydropyrrolo[3,4-b]indol-3-one], for which inhibition was half-maximal at 5 nM (IC50).

With `CC(C)C[C@H](O)[C@H](O)[C@H](CC1CCCCC1)NC(=O)[C@H](Cc1cc[nH]n1)N1Cc2c([nH]c3ccccc23)C1=O` [Example 87, (1'S,2"S,3"R,4"S)-2-[1-[N-(1-Cyclohexyl-3,4-dihydroxy-6-methyl-2-heptyl)carbamoyl]-2-(3-pyrazolyl)ethyl]-1,2,3,4-tetrahydropyrrolo[3,4-b]indol-3-one], the concentration for half-maximal inhibition (IC50) is 9.5 nM.

Consider `CCN1C[C@@H]([C@H](O)[C@H](CC2CCCCC2)NC(=O)C(Cc2cscn2)N2Cc3c([nH]c4ccccc34)C2=O)OC1=O` (stereo partly drawn) [Example 88, (1'RS,2"S,3"R,5"'S)-2-[1-[N-[1-Cyclohexyl-3-hydroxy-3-(3-ethyloxazolidin-2-on-5-yl)-2-propyl]carbamoyl]-2-(4-thiazolyl)ethyl]-1,2,3,4-tetrahydropyrrolo[3,4-b]indol-3-one], for which half-maximal inhibition (IC50) was put at 28 nM.

`CCN1C[C@@H]([C@H](O)[C@H](CC2CCCCC2)NC(=O)C(Cc2cc[nH]n2)N2Cc3c([nH]c4ccccc34)C2=O)OC1=O` (stereo partly drawn) [Example 89, (1'RS,2"S,3"R,5"'S)-2-[1-[N-[1-Cyclohexyl-3-hydroxy-3-(3-ethyloxazolidin-2-on-5-yl)-2-propyl]carbamoyl]-2-(3-pyrazolyl)ethyl]-1,2,3,4-tetrahydropyrrolo[3,4-b]indol-3-one]: the IC50 is 89 nM.

As to `CCCCC(C(=O)N[C@@H](CC1CCCCC1)[C@@H](O)[C@@H](O)CC(C)C)N1Cc2c([nH]c3ccccc23)C1=O` (stereo partly drawn) [Example 93, (1'RS,2"S,3"R,4"S)-2-[1-[N-(1-Cyclohexyl-3,4-dihydroxy-6-methyl-2-heptyl)carbamoyl]pentyl]-1,2,3,4-tetrahydropyrrolo[3,4-b]indol-3-one], half-maximal inhibition (IC50) required 44 nM.

On to `CCCC[C@@H](C(=O)N[C@@H](CC1CCCCC1)[C@@H](O)[C@@H](O)CC(C)C)N1CCc2c([nH]c3ccccc23)C1=O` [Example 96], for which the midpoint of inhibition, the IC50, lay at 66 nM.

`CC(C)C[C@H](O)[C@H](O)[C@H](CC1CCCCC1)NC(=O)[C@H](Cc1c[nH]cn1)N1CCc2c([nH]c3ccccc23)C1=O` [Example 101, (1'S,2"S,3"R,4"S)-2-[1-[N-(1-Cyclohexyl-3,4-dihydroxy-6-methyl-2-heptyl)carbamoyl]-2-(4-imidazolyl)ethyl]-1,2,3,4-tetrahydro-9H-pyrido[3,4-b]indol-1-one] returned an IC50 of 67 nM.

For `CCN1C[C@@H]([C@H](O)[C@H](CC2CCCCC2)NC(=O)[C@H](Cc2c[nH]cn2)NC(=O)c2ccc3ccccc3n2)OC1=O` [Example 109, N-(Quinolinyl-2-carbonyl)-His Amide of (2'S,1'R,5S)-3-Ethyl-5-(1-hydroxy-2-amino-3-cyclohexylpropyl)oxazolidin-2-one], the IC50 came to 36 nM.

Compound `CC(C)C[C@H](O)[C@H](O)[C@H](CC1CCCCC1)NC(=O)[C@H](Cc1c[nH]cn1)NC(=O)c1ccc2ccccc2n1` [Example 110, N-(Quinolinyl-2-carbonyl)-His Amide of 2(S)-Amino-1-cyclohexyl-3(R),4(S)-dihydroxy-6-methylheptane] yielded an IC50 of 8.7 nM.

Regarding `CC(C)C[C@H](O)[C@H](O)[C@H](CC1CCCCC1)NC(=O)[C@H](Cc1c[nH]cn1)NC(=O)N1CCc2ccccc2C1` [Example 114, N-(1,2,3,4-Tetrahydroisoquinolinyl-2-carbonyl)-His Amide of 2(S)-Amino-1-cyclohexyl-3(R),4(S)-dihydroxy-6-methylheptane], 63 nM corresponded to half-maximal inhibition (IC50).

In turn, `O=C(N[C@@H](Cc1c[nH]cn1)C(=O)NCC(O)CO)c1[nH]c2ccccc2c1CCCC1CCCCC1` (stereo partly drawn) [Example 125, N-[3-(3-Cyclohexylpropyl)indolyl-2-carbonyl]-His Amide of 3-Amino-1,2-propanediol] displayed a half-maximal inhibitory concentration (IC50) of 3800 nM.

`O=C(N[C@@H](Cc1c[nH]cn1)C(=O)NCC(O)CO)c1[nH]c2ccccc2c1CCC=CC1CCCCC1` (stereo partly drawn) [Example 127, N-[3-(4-Cyclohexylbut-3-enyl)indolyl-2-carbonyl]-His Amide of 3-Amino-1,2-propanediol] showed an IC50 of 7000 nM.

In turn, `O=C(N[C@@H](Cc1c[nH]cn1)C(=O)NCC(O)CO)c1[nH]c2ccccc2c1CCc1ccccc1` (stereo partly drawn) [Example 130, [3-(2-Phenylethyl)indolyl-2-carbonyl]-His Amide of 3-Amino-1,2-propanediol] displayed a concentration for half-maximal inhibition (IC50) of 10000 nM.

The IC50 is the concentration needed to halve the response being measured. Low values mean greater potency in that assay, high ones weaker potency in that assay.
